# In patent publication US11759442B2, “Use of short chain fatty acids for the treatment and prevention of diseases and disorders” (Temple University-Of The Commonwealth System of Higher …, priority 2017, dated 2023):
# What was measured:
# [1] = tested on: psoriasis skin lesions
# [2] = target: GPR-109a receptor (Homo sapiens, UniProt Q8TDS4); conditions: read-out: EC50 of GPR-109a receptor activation; cited from earlier work
# [3] = tested on: IL-6; conditions: cited from earlier work
# [4] = tested on: ileum inflammatory cytokines; conditions: neonatal piglets, oral ~10 ml of 150 mmol/L; cited from earlier work
# Sequence of GPR-109a receptor (Q8TDS4 whole entry): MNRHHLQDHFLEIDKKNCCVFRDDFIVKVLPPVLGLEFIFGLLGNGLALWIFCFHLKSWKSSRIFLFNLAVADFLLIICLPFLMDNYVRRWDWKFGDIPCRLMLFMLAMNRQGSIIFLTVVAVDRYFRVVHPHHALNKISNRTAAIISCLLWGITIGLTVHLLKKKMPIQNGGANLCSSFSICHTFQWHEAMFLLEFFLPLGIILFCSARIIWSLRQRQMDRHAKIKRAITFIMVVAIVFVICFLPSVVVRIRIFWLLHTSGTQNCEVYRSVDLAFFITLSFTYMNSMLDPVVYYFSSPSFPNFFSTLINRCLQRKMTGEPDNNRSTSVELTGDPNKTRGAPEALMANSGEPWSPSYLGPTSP
compound,measurement,setting,value
CCCC(=O)O [butyrate],re-emergence of psoriasis on left elbow after ceasing the regimen,"[1]; FIG. 2 patient, one 600 mg pill 3 times daily for 16 days, then stopped",20 days
same,time until psoriasis came back after stopping the regimen,[1]; FIG. 5 fourth patient,20 to 25 days
same,side effects during treatment,"[1]; FIG. 5 fourth patient, treatment for long period of time",no side effects were noted
same,EC50,[2],~1.5 mM
CCC(=O)O [propionate],effect on IL-6,[3],inhibit IL-6
CCCC(=O)[O-].[Na+] [sodium butyrate],effect on ileum inflammatory cytokines,[4],modulated the ileum inflammatory cytokines
